Columns and labels:
Type in all cases: in vivo
Venturia inaequalis [1] = assay: Example 4 field trials, apple (Malus domestica var. Golden delicious) infected with scab; settings: 250 g a.c./ha
Plasmopara viticola [2] = assay: Example 7 field trial, Vitis vinifera var. Merlot infected with downy mildew, France; settings: 130 g a.c./ha
Podosphaera leucotricha = assay: Example 14 field trials, apple (Malus domestica var. Gold Rush, var. Morgenduft Dallago) infected with powdery mildew; settings: 840 g a.c./ha
Sphaerotheca fuliginea = assay: Example 8 field trial, cucumber (Cucumis sativus) infected with powdery mildew, Spain; settings: 7 DA-A3, BBCH 63, 500 g a.c./ha
Venturia inaequalis [3] = assay: Example 15 field trial, apple (Malus domestica var. Gala) infected with apple scab, France; settings: PESINC, 200 leaves, 1200 g a.c./ha
Plasmopara viticola [4] = assay: Example 1 field trial, Vitis vinifera var. Chardonnay infected with downy mildew, South Africa; settings: 120 g a.c./ha
Peronospora cumensis = assay: Example 2 field trial, cucumber (Cucumis sativus) infected with downy mildew, France; settings: PESSEV, 150 g a.c./ha

Question: For `N#Cc1sc2c(=O)c3ccccc3c(=O)c=2sc1C#N` [DIT, 5,10-dioxobenzo[g][1,4]benzodithiine-2,3-dicarbonitrile], which “DIT f.e. (%)” value (Venturia inaequalis [1]; PESINC, location 1 (France), 1 DA-A6, BBCH 74) is on record?
Answer: 19.8%

Question: And the “DIT f.e. (%)” value (Venturia inaequalis [1]; PESINC, location 1 (France), 6 DA-A4, BBCH 72)?
Answer: 38.6%

Question: What about the “DIT f.e. (%)” value (Venturia inaequalis [1]; PESINC, location 2 (United Kingdom), 5 DA-A8, BBCH 74) of the same compound?
Answer: 59.0%

Question: What about the “DIT f.e. (%)” value (Venturia inaequalis [1]; PESINC, location 3 (Belgium), 31 DA-A9, BBCH 73) of the same compound?
Answer: 51.8%

Question: And the “DIT f.e. (%)” value (Venturia inaequalis [1]; PESINC, location 3 (Belgium), 80 DA-A9, BBCH 73)?
Answer: 42.6%

Question: What about the “DIT f.e. (%)” value (Venturia inaequalis [1]; PESSEV, location 1 (France), 1 DA-A6, BBCH 74) of the same compound?
Answer: 63.0%

Question: And the “DIT f.e. (%)” value (Venturia inaequalis [1]; PESSEV, location 1 (France), 6 DA-A4, BBCH 72)?
Answer: 75.4%

Question: For `O=C(NCc1ncc(C(F)(F)F)cc1Cl)c1c(Cl)cccc1Cl` [FLU, 2,6-dichloro-N-[[3-chloro-5-(trifluoromethyl)pyridin-2-yl]methyl]benzamide], which “FLU f.e. (%)” value (Plasmopara viticola [2]; PESINC, 50 bunches, 0 DA-A3, BBCH 73) is on record?
Answer: 84.4%

Question: What about the “FLU f.e. (%)” value (Plasmopara viticola [2]; PESINC, 50 bunches, 0 DA-A5, BBCH 77) of the same compound?
Answer: 37.5%

Question: What about the “FLU f.e. (%)” value (Plasmopara viticola [2]; PESINC, 50 bunches, 9 DA-A6, BBCH 83) of the same compound?
Answer: 14.5%

Question: What about the “FLU f.e. (%)” value (Plasmopara viticola [2]; PESINC, 100 leaves, 0 DA-A3, BBCH 73) of the same compound?
Answer: 62.3%

Question: And the “FLU f.e. (%)” value (Plasmopara viticola [2]; PESINC, 100 leaves, 0 DA-A5, BBCH 77)?
Answer: 47.8%

Question: What about the “FLU f.e. (%)” value (Plasmopara viticola [2]; PESINC, 100 leaves, 9 DA-A6, BBCH 83) of the same compound?
Answer: 32.2%

Question: And the “FLU f.e. (%)” value (Plasmopara viticola [2]; PESSEV, 50 bunches, 0 DA-A5, BBCH 77)?
Answer: 83.6%

Question: What about the “FLU f.e. (%)” value (Plasmopara viticola [2]; PESSEV, 50 bunches, 9 DA-A6, BBCH 83) of the same compound?
Answer: 46.8%

Question: `OCC1(O)OC[C@@H](O)[C@H](O)[C@@H]1O` (stereo partly drawn) [TAG, (3S,4S,5R)-2-(hydroxymethyl)oxane-2,3,4,5-tetrol] was tested. Which “TAG f.e. (%)” value (Podosphaera leucotricha; PESINC, location 1 (France), 20 shoots, 7 DA-A5, BBCH 71) did it give?
Answer: 26.7%

Question: What about the “TAG f.e. (%)” value (Podosphaera leucotricha; PESINC, location 1 (France), 100 leaves, 5 DA-A8, BBCH 74) of the same compound?
Answer: 18.8%

Question: And the “TAG f.e. (%)” value (Podosphaera leucotricha; PESINC, location 1 (France), 100 leaves, 6 DA-A6, BBCH 74)?
Answer: 14.5%

Question: And the “TAG f.e. (%)” value (Podosphaera leucotricha; PESINC, location 1 (France), 100 leaves, 15 DA-A8, BBCH 76)?
Answer: 8.7%

Question: What about the “TAG f.e. (%)” value (Podosphaera leucotricha; PESINC, location 1, 20 shoots, 7 DA-A5, BBCH 71, second listing (r40)) of the same compound?
Answer: 0.6%

Question: And the “TAG f.e. (%)” value (Podosphaera leucotricha; PESINC, location 1, 100 leaves, 5 DA-A8, BBCH 74, second listing (r52))?
Answer: 2.4%

Question: What about the “TAG f.e. (%)” value (Podosphaera leucotricha; PESINC, location 1, 100 leaves, 6 DA-A6, BBCH 74, second listing (r46)) of the same compound?
Answer: 36.4%

Question: What about the “TAG f.e. (%)” value (Podosphaera leucotricha; PESINC, location 1, 100 leaves, 15 DA-A8, BBCH 76, second listing (r58)) of the same compound?
Answer: 5.9%

Question: What about the “TAG f.e. (%)” value (Podosphaera leucotricha; PESSEV, location 1 (France), 100 leaves, 5 DA-A8, BBCH 74) of the same compound?
Answer: 38.4%

Question: And the “TAG f.e. (%)” value (Podosphaera leucotricha; PESSEV, location 1 (France), 100 leaves, 6 DA-A6, BBCH 74)?
Answer: 15.6%

Question: What about the “TAG f.e. (%)” value (Podosphaera leucotricha; PESSEV, location 1 (France), 100 leaves, 15 DA-A8, BBCH 76) of the same compound?
Answer: 2.6%

Question: And the “TAG f.e. (%)” value (Podosphaera leucotricha; PESSEV, location 1, 100 leaves, 5 DA-A8, BBCH 74, second listing (r49))?
Answer: 1.6%

Question: What about the “TAG f.e. (%)” value (Podosphaera leucotricha; PESSEV, location 1, 100 leaves, 6 DA-A6, BBCH 74, second listing (r43)) of the same compound?
Answer: 44.9%

Question: And the “TAG f.e. (%)” value (Podosphaera leucotricha; PESSEV, location 1, 100 leaves, 15 DA-A8, BBCH 76, second listing (r55))?
Answer: 3.5%

Question: And the “TAG f.e. (%)” value (Sphaerotheca fuliginea; PESINC)?
Answer: 83.9%

Question: And the “TAG f.e. (%)” value (Sphaerotheca fuliginea; PESSEV)?
Answer: 93.2%

Question: What about the “TAG f.e. (%)” value (Venturia inaequalis [3]; 28 DA-A12, BBCH 73) of the same compound?
Answer: 28.1%

Question: And the “TAG f.e. (%)” value (Venturia inaequalis [3]; 56 DA-A12, BBCH 75)?
Answer: 28.0%

Question: How did the “VAL f.e. (%)” value (Plasmopara viticola [4]; PESINC, 50 bunches, 14 DA-A3, BBCH 77) turn out when `COC(=O)CC(NC(=O)[C@@H](NC(=O)OC(C)C)C(C)C)c1ccc(Cl)cc1` (stereo partly drawn) [VAL, methyl 3-(4-chlorophenyl)-3-[[(2S)-3-methyl-2-(propan-2-yloxycarbonylamino)butanoyl]amino]propanoate] was run?
Answer: 64.0%

Question: And the “VAL f.e. (%)” value (Plasmopara viticola [4]; PESINC, 50 bunches, 14 DA-A5, BBCH 83)?
Answer: 53.6%

Question: And the “VAL f.e. (%)” value (Plasmopara viticola [4]; PESINC, 100 leaves, 14 DA-A3, BBCH 77)?
Answer: 57.6%

Question: What about the “VAL f.e. (%)” value (Plasmopara viticola [4]; PESSEV, 50 bunches, 14 DA-A3, BBCH 77) of the same compound?
Answer: 75.9%

Question: And the “VAL f.e. (%)” value (Plasmopara viticola [4]; PESSEV, 50 bunches, 14 DA-A5, BBCH 83)?
Answer: 73.3%

Question: And the “VAL f.e. (%)” value (Plasmopara viticola [4]; PESSEV, 100 leaves, 14 DA-A3, BBCH 77)?
Answer: 66.9%

Question: What about the “VAL f.e. (%)” value (Peronospora cumensis; 6 DA-A2, BBCH 19) of the same compound?
Answer: 31.7%

Question: And the “VAL f.e. (%)” value (Peronospora cumensis; 7 DA-A1, BBCH 16)?
Answer: 43.6%

Question: And the “VAL f.e. (%)” value (Peronospora cumensis; 7 DA-A4, BBCH 19)?
Answer: 62.1%

Question: And the “VAL f.e. (%)” value (Peronospora cumensis; 8 DA-A3, BBCH 19)?
Answer: 31.7%

Question: And the “VAL f.e. (%)” value (Peronospora cumensis; 14 DA-A4, BBCH 19)?
Answer: 27.0%

Source: patent US12490739B2, “Synergistically effective fungicide composition comprising choline phosphonate and at least one additional fungicide” (BELCHIM CROP PROTECTION NV, priority 2019, dated 2025)
